Tests used:
HLA-A*24 = assay: MHC binding assay, UV-ligand exchange with β2m ELISA, HLA-A*24 (Table 21); design: species or system human; settings: binding to HLA-A*24 ranged by peptide exchange yield (UV-ligand exchange, β2m ELISA)
Description: Candidate peptides for T cell based therapies according to the present invention were further tested for their MHC binding capacity (affinity). The individual peptide-MHC complexes were produced by UV-ligand exchange, where a UV-sensitive peptide is cleaved upon UV-irradiation, and exchanged with the peptide of interest as analyzed. Only peptide candidates that can effectively bind and stabilize the peptide-receptive MHC molecules prevent dissociation of the MHC complexes. To determine the yield of the exchange reaction, an ELISA was performed based on the detection of the light chain ((β2m) of stabilized MHC complexes. The assay was performed as generally described in Rodenko et al. (Rodenko et al., 2006).
96 well MAXISorp plates (NUNC) were coated over night with 2 ug/ml streptavidin in PBS at room temperature, washed 4× and blocked for 1 h at 37° C. in 2% BSA containing blocking buffer. Refolded HLA-A*02:01/MLA-001 monomers served as standards, covering the range of 15-500 ng/ml. Peptide-MHC monomers of the UV-exchange reaction were diluted 100 fold in blocking buffer. Samples were incubated for 1 h at 37° C., washed four times, incubated with 2 ug/ml HRP conjugated anti-β2m for 1 h at 37° C., washed again and detected with TMB solution that is stopped with […]. Absorption was measured at 450 nm. Candidate peptides that show a high exchange yield (preferably higher than 50%, most preferred higher than 75%) are generally preferred for a generation and production of antibodies or fragments thereof, and/or T cell receptors or fragments thereof, as they show sufficient avidity to the MHC molecules and prevent dissociation of the MHC complexes.

CD8+ T cells = assay: In vitro immunogenicity: T-cell priming with aAPCs loaded with peptide/MHC complexes and anti-CD28 antibody, pMHC multimer readout (Tables 19A, 19B); assay type: cell-based, human; settings: in vitro immunogenicity of HLA class I peptides, pMHC multimer readout after priming of CD8+ T cells
Description: In an aspect, the peptides are pre-screened for immunogenicity before being included in the warehouse. By way of example, and not limitation, the immunogenicity of the peptides included in the warehouse is determined by a method comprising in vitro T-cell priming through repeated stimulations of CD8+ T cells from healthy donors with artificial antigen presenting cells loaded with peptide/MHC complexes and anti-CD28 antibody.
In order to obtain information regarding the immunogenicity of the TUMAPs of the present invention, the inventors performed investigations using an in vitro T-cell priming assay based on repeated stimulations of CD8+ T cells with artificial antigen presenting cells (aAPCs) loaded with peptide/MHC complexes and anti-CD28 antibody.
In order to perform in vitro stimulations by artificial antigen presenting cells loaded with peptide-MHC complex (pMHC) and anti-CD28 antibody, the inventors first isolated CD8+ T cells from fresh HLA-A*02 leukapheresis products via positive selection using CD8 microbeads (Miltenyi Biotec, Bergisch-Gladbach, Germany) of healthy donors obtained from the University clinics Mannheim, Germany, after informed consent.
PBMCs and isolated CD8+ lymphocytes were incubated in T-cell medium (TCM) until use consisting of RPMI-Glutamax (Invitrogen, Karlsruhe, Germany) supplemented with 10% heat inactivated human AB serum (PAN-Biotech, Aidenbach, Germany), 100 U/ml Penicillin/100 μg/ml Streptomycin (Cambrex, Cologne, Germany), 1 mM sodium pyruvate (CC Pro, Oberdorla, Germany), 20 μg/ml Gentamycin (Cambrex). 2.5 ng/ml IL7 (PromoCell, Heidelberg, Germany) and 10 U/ml IL-2 (Novartis Pharma, Nurnberg, Germany) were also added to the TCM at this step.
Generation of pMHC/anti-CD28 coated beads, T-cell stimulations and readout was performed in a highly defined in vitro system using four different pMHC molecules per stimulation condition and 8 different pMHC molecules per readout condition.
The purified co-stimulatory mouse IgG2a anti human CD28 Ab 9.3 (Jung et al., 1987) was chemically biotinylated using Sulfo-N-hydroxysuccinimidobiotin as recommended by the manufacturer (Perbio, Bonn, Germany). Beads used were 5.6 μm diameter streptavidin coated polystyrene particles (Bangs Laboratories, Illinois, USA).
pMHC used for positive and negative control stimulations were A*0201/MLA-001 (peptide […] (SEQ ID NO. 303) from modified Melan-A/MART-1) and A*0201/DDX5-001 ([…] from DDX5, SEQ ID NO. 304), respectively.
800.000 beads/200 μl were coated in 96-well plates in the presence of 4×12.5 ng different biotin-pMHC, washed and 600 ng biotin anti-CD28 were added subsequently in a volume of 200 μl. Stimulations were initiated in 96-well plates by co-incubating […] CD8+ T cells with 2×10^5 washed coated beads in 200 μl TCM supplemented with 5 ng/ml IL-12 (PromoCell) for 3 days at 37° C. Half of the medium was then exchanged by fresh TCM supplemented with 80 U/ml IL-2 and incubating was continued for 4 days at 37° C. This stimulation cycle was performed for a total of three times. For the pMHC multimer readout using 8 different pMHC molecules per condition, a two-dimensional combinatorial coding approach was used as previously described (Andersen et al., 2012) with minor modifications encompassing coupling to 5 different fluorochromes. Finally, multimeric analyses were performed by staining the cells with Live/dead near IR dye (Invitrogen, Karlsruhe, Germany), CD8-FITC antibody clone SK1 (BD, Heidelberg, Germany) and fluorescent pMHC multimers. For analysis, a BD LSRII SORP cytometer equipped with appropriate lasers and filters was used. Peptide specific cells were calculated as percentage of total CD8+ cells. Evaluation of multimeric analysis was done using the FlowJo software (Tree Star, Oreg., USA). In vitro priming of specific multimer+ CD8+ lymphocytes was detected by comparing to negative control stimulations.

Row | Substance | Peptide exchange (HLA-A*24) | Wells positive [%] (CD8+ T cells)
1 | 166 (YYVESGKLF; listed as Homo sapiens) [compound 166] | ++++ (≧75% = ++++) | +++ (50%-69% = +++)
2 | 165 (DYTTWTALL; listed as Homo sapiens) [compound 165] | ++++ (≧75% = ++++) | + (<20% = +)
3 | 159 (LYNKGFIYL; listed as Homo sapiens) [compound 159] | ++++ (≧75% = ++++) | ++++ (≧70% = ++++)
4 | 163 (DYLKGLASF; listed as Homo sapiens) [compound 163] | ++++ (≧75% = ++++) | + (<20% = +)
5 | 162 (VFTRVSSFL; listed as Homo sapiens) [compound 162] | +++ (50%-75% = +++) | ++ (20%-49% = ++)
6 | 161 (IYLVSIPEL; listed as Homo sapiens) [compound 161] | ++++ (≧75% = ++++) | ++ (20%-49% = ++)
7 | 197 (EYSLFPGQVVI; listed as Homo sapiens) [compound 197] | +++ (50%-75% = +++) | + (<20% = +)
8 | 158 (HYSQELSLLYL; listed as Homo sapiens) [compound 158] | ++++ (≧75% = ++++) | + (<20% = +)
9 | 173 (IYSWILDHF; listed as Homo sapiens) [compound 173] | ++++ (≧75% = ++++) | ++ (20%-49% = ++)
10 | 176 (EYNQWFTKL; listed as Homo sapiens) [compound 176] | +++ (50%-75% = +++) | +++ (50%-69% = +++)
11 | 196 (LYIDRPLPYL; listed as Homo sapiens) [compound 196] | +++ (50%-75% = +++) | ++++ (≧70% = ++++)
12 | 160 (VYTLDIPVL; listed as Homo sapiens) [compound 160] | ++++ (≧75% = ++++) | ++ (20%-49% = ++)
13 | 169 (AYTLIAPNI; listed as Homo sapiens) [compound 169] | +++ (50%-75% = +++) | +++ (50%-69% = +++)
14 | 167 (NYINRILKL; listed as Homo sapiens) [compound 167] | ++++ (≧75% = ++++) | + (<20% = +)
15 | 168 (KYQDILETI; listed as Homo sapiens) [compound 168] | ++++ (≧75% = ++++) | ++ (20%-49% = ++)

Continued, in another order:

Row | Peptide exchange (HLA-A*24) | Substance | Wells positive [%] (CD8+ T cells)
16 | +++ (50%-75% = +++) | 200 (YYGPSLFLL; listed as Homo sapiens) [compound 200] | ++ (20%-49% = ++)
17 | +++ (50%-75% = +++) | 268 (QYLGQIQHI; listed as Homo sapiens) [compound 268] | + (<20% = +)
18 | +++ (50%-75% = +++) | 199 (RYAEEVGIF; listed as Homo sapiens) [compound 199] | ++ (20%-49% = ++)
19 | +++ (50%-75% = +++) | 285 (HYPPVQVLF; listed as Homo sapiens) [compound 285] | + (<20% = +)
20 | ++++ (≧75% = ++++) | 204 (TYELRYFQI; listed as Homo sapiens) [compound 204] | + (<20% = +)
21 | +++ (50%-75% = +++) | 222 (TFSVSSHLF; listed as Homo sapiens) [compound 222] | ++ (20%-49% = ++)
22 | ++ (20%-49% = ++) | 281 (PYRLIFEKF; listed as Homo sapiens) [compound 281] | +++ (50%-69% = +++)
23 | +++ (50%-75% = +++) | 218 (YYKSTSSAF; listed as Homo sapiens) [compound 218] | + (<20% = +)
24 | ++ (20%-49% = ++) | 207 (AYVVFVSTL; listed as Homo sapiens) [compound 207] | + (<20% = +)
25 | +++ (50%-75% = +++) | 269 (YFIDSTNLKTHF; listed as Homo sapiens) [compound 269] | + (<20% = +)

Source: US20170189504A1, “NOVEL PEPTIDES AND COMBINATION OF PEPTIDES FOR USE IN IMMUNOTHERAPY AGAINST VARIOUS CANCERS” (immatics biotechnologies GmbH, priority 2015, published 2017)
